This note sets out measurements from ChEMBL document CHEMBL1201862, “PubChem BioAssay data set” (2004).

Calls of active or inactive are those of the source.

Experiment [1] concerns Vibrio harveyi. Nature of the experiment: Quorum Sensing, LuxS, LuxPQ Measured in Microorganism System Using Plate Reader - 2035-01_Inhibitor_DoseNoFile_DryPowder_Activity. [Related pubchem assays (depositor defined):AID2106]. In kind it is functional, organism-based.
Experiment [2] has as its system Vibrio harveyi. Nature of the experiment: inhibitors of AI-2 quorum sensing in V. harveyi, dose response, LuxS, LuxPQ, dry powder, set 2 (AID 493072). Format: functional, organism-based.
In experiment [3] the target is T1, Replicative DNA helicase DnaB (Mycobacterium tuberculosis, UniProt P9WMR3).
T1 sequence (P9WMR3 whole entry): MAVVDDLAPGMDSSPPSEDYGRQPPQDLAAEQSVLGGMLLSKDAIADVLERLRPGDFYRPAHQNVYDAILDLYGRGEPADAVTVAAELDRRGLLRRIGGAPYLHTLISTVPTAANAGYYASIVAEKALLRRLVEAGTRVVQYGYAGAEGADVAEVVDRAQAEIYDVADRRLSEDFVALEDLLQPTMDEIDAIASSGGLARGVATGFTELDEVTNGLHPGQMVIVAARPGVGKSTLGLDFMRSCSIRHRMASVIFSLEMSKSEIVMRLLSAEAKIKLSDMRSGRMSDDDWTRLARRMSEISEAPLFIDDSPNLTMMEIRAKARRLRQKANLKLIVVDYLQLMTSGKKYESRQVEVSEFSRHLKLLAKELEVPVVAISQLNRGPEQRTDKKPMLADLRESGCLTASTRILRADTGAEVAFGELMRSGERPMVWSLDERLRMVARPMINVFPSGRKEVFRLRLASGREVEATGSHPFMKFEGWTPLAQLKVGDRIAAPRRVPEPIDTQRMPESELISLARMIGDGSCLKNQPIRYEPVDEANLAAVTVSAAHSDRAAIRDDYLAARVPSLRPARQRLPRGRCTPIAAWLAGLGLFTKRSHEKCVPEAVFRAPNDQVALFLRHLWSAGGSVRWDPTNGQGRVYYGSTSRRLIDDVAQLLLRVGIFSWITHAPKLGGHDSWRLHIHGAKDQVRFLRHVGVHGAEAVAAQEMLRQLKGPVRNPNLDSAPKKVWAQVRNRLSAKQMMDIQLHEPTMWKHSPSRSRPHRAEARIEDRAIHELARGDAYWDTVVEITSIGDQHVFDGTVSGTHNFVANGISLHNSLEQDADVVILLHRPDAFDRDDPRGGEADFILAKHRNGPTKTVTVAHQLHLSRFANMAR
Nature of the experiment: DnaB intein splicing inhibitors, dose response, biochemical, cell-free fluorescence (AID 449749). Format: functional.

Experiment [4] concerns the target T2, Leucine aminopeptidase (Plasmodium falciparum 3D7, UniProt Q8IL11).
T2 sequence (Q8IL11 whole entry): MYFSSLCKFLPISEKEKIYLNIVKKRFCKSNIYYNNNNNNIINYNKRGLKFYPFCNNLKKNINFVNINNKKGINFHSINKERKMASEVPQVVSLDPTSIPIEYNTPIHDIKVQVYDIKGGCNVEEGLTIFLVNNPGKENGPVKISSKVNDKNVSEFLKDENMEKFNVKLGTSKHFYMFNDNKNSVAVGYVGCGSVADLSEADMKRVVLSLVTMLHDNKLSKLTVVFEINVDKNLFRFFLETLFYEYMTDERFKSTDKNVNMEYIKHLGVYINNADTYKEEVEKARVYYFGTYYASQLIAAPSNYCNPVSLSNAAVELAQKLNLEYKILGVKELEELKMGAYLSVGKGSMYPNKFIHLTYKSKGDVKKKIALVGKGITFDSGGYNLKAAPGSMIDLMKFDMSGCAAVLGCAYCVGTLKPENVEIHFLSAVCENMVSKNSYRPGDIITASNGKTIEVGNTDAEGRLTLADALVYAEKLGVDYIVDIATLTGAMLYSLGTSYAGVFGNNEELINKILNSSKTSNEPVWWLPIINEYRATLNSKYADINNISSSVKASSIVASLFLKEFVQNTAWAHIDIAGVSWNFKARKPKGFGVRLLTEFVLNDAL
Nature of the experiment: P. falciparum M17LAP inhibitors, primary screen, biochemical, fluorogenic H-Leu-NHMec substrate, 1536-well (AID 1619). Format: functional.

Experiment [5] has as its target T3, Protein RecA (Mycobacterium tuberculosis, UniProt P9WHJ3).
T3 sequence (P9WHJ3 whole entry): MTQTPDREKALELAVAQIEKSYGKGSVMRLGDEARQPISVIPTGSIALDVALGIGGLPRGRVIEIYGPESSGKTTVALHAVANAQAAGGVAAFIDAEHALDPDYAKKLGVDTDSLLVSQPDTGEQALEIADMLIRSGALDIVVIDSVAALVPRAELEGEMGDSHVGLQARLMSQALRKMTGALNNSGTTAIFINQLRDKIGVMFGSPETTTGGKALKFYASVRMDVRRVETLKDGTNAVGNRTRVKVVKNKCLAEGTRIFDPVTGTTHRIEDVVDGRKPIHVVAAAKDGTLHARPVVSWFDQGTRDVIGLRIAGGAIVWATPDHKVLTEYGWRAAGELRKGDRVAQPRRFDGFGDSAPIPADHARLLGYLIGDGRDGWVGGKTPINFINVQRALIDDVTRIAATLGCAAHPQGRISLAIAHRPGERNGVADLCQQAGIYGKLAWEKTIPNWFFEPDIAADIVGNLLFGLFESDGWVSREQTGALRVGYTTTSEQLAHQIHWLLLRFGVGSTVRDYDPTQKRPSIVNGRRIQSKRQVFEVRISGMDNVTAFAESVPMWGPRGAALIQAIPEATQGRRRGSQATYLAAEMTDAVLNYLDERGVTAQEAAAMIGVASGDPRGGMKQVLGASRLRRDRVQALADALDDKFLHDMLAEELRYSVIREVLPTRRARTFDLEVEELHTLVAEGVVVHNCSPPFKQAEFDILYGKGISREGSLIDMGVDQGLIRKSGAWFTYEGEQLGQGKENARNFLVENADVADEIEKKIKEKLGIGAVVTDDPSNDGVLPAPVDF
Nature of the experiment: Fluorescence Cell-Free Homogeneous Dose Retest to Identify Inhibitors of RecA-Intein Splicing Activity. [Related pubchem assays (depositor defined):AID2097, AID2223, AID489010, AID492950]. Format: functional.

A short description of experiment [6]: Intein inhibitors as potential Tuberculosis drugs, a cytotoxicity screen. [Related pubchem assays (depositor defined):AID2221, AID2223, AID434968, AID435010, AID449749, AID449750, AID489010]. In kind it is functional.
Experiment [7] has as its system T-cell. Nature of the experiment: inhibitors of CD8+ T cell–vesicle binding, dose response, mouse 2C CD8+ T cells, flow cytometry (AID 485284). In kind it is functional. (In general: Flow cytometry measures light scatter and fluorescence of single cells or particles in a stream.)
Experiment [8] concerns the target DNA damage-inducible transcript 3 protein (Mus musculus, UniProt P35639). Format: functional, Cricetulus griseus.
Experiment [9] concerns INS1. Nature of the experiment: beta cell apoptosis inhibitors, cytokine rescue, dose response, luminescence, retest (AID 449756).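 Also: cell death triggered by IL-1 beta plus TNF-alpha plus IFN-gamma mixture; protective hits raise ATP signal compared with cytokine alone wells.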 In kind it is functional, cell-based. To be noted: Rattus norvegicus.
Experiment [10] concerns the target T4, Streptokinase A (Streptococcus pyogenes serotype M1, UniProt P10520).
T4 sequence (P10520 whole entry): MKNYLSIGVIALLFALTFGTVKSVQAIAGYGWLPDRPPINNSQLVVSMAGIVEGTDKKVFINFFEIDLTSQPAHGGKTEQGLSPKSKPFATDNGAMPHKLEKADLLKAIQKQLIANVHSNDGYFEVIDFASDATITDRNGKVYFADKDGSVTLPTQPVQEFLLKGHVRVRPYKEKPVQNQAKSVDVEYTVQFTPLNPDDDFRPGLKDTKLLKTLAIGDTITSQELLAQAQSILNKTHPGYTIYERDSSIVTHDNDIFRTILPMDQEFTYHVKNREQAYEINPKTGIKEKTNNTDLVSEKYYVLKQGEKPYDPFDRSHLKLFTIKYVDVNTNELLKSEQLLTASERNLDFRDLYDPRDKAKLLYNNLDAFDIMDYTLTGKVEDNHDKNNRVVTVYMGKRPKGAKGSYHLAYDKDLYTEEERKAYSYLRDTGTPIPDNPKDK
The experiment is described as follows: S. pyogenes streptokinase expression inhibitors, potency, dose response, plasminogen activation absorbance, OD405 (AID 1914).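 Also: secreted streptokinase activity via plasminogen activation per viability signal from cell pellet.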 Format: functional, Streptococcus pyogenes M1 GAS.

Experiment [11] can be described thus: A549 cell cytotoxicity, dose response, cytotoxicity control, plate reader, cherry-pick, antagonist series (AID 743412). Format: functional, cell-based.
The subject of experiment [12] is Streptococcus. The experiment is described as follows: Group A Streptococcus viability loss, dose response, counter-screen for streptokinase expression inhibitor project, luminescence, BacTiterGlo (AID 1915).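 Also: potency for reduction of bacterial viability or growth.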 In kind it is functional, organism-based.
A short description of experiment [13]: HEK293 cell cytotoxicity, dose response, cytotoxicity control, plate reader, cherry-picked samples (AID 743446). Format: functional, cell-based.
The target in experiment [14] is T5, Type-1 angiotensin II receptor (Homo sapiens, UniProt P30556).
T5 sequence (P30556 whole entry): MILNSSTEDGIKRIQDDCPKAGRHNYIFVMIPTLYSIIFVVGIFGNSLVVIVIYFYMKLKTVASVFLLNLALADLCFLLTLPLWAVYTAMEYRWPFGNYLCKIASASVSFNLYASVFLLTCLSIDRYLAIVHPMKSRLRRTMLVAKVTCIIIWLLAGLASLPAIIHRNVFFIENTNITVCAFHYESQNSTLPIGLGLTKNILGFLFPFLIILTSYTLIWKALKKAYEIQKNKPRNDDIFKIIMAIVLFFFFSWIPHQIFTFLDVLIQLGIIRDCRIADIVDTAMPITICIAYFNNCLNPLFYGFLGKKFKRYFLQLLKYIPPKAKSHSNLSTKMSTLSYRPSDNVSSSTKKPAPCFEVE
The experiment is described as follows: AT1 receptor agonists, dose response, selectivity assay for APJ receptor agonist project, cell-based, uHTS hits (AID 488865).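 Also: beta-arrestin recruitment to AT1 measured by enzyme fragment complementation luminescence.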 Format: functional.

The nature of experiment [15]: LGR2 antagonists, dose response, cell-based, HEK293, CRE-luciferase reporter, cherry pick, set 2 (AID 743343).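 Also: transfected cells were stimulated with diluted bursicon conditioned medium after compound addition.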 Format: functional.
The subject of experiment [16] is Streptococcus sp. 'group A'. Nature of the experiment: growth inhibition of control SK(-) GAS strain, dose response, counter-screen for streptokinase expression inhibitor project, luminescence, kanamycin, BacTiterGlo, confirmation (AID 1900). Format: functional, organism-based. A general note: Counterscreens check selectivity or assay interference.
A short description of experiment [17]: HepG2 cell cytotoxicity, dose response, cytotoxicity control, plate reader, cherry-pick, antagonist series (AID 743416). Format: functional, cell-based.
Experiment [18] is described as follows: MC4R antagonists, dose response, counter-screen for LGR2 antagonist project, cell-based, plate reader, cherry pick (AID 743444).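 Also: transfected HEK 293 cells stimulated with alpha-MSH peptide; potency of inhibitors of the alpha-MSH evoked signal.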 Format: functional.
In experiment [19] the target is T6, Cannabinoid receptor 2 (Homo sapiens, UniProt P34972). Nature of the experiment: SAR analysis of antagonists of the Cannabinoid Receptor 2 using an Image-Based Assay - Set 2. [Related pubchem assays (depositor defined):AID1961, AID1965]. Format: functional.
T6 sequence (P34972 whole entry): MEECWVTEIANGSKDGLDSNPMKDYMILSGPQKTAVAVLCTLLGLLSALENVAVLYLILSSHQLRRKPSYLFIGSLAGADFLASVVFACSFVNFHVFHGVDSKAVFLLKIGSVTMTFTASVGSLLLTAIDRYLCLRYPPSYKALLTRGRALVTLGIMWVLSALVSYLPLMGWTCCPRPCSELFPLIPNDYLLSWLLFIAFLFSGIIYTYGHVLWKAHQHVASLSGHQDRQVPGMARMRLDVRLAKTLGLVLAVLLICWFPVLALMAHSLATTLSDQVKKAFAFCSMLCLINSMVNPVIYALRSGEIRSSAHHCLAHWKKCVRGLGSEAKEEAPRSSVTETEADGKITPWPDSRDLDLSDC
For experiment [20], the target named is G-protein coupled receptor 55 (Homo sapiens, UniProt Q9Y2T6). Nature of the experiment: SAR analysis of selective Agonists of GPR55 using an Image-Based Assay - Set 2. [Related pubchem assays (depositor defined):AID1961, AID1965]. Format: functional.
Chain of G-protein coupled receptor 55 (Q9Y2T6 whole entry): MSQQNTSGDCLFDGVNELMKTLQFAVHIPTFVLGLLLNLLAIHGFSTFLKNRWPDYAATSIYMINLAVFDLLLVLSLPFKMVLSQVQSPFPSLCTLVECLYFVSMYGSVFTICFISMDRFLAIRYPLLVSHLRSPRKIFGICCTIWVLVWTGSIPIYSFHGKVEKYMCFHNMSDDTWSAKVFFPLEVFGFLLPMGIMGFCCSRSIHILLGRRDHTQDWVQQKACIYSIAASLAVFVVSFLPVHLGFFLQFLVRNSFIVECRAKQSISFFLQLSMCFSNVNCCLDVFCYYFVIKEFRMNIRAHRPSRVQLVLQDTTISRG
In experiment [21] the target is T7, Cannabinoid receptor 1 (Homo sapiens, UniProt P21554). Nature of the experiment: SAR analysis of agonists of the Cannabinoid Receptor 1 using an Image-Based Assay - Set 3. [Related pubchem assays (depositor defined):AID1961, AID1965]. In kind it is functional.
T7 sequence (P21554 whole entry): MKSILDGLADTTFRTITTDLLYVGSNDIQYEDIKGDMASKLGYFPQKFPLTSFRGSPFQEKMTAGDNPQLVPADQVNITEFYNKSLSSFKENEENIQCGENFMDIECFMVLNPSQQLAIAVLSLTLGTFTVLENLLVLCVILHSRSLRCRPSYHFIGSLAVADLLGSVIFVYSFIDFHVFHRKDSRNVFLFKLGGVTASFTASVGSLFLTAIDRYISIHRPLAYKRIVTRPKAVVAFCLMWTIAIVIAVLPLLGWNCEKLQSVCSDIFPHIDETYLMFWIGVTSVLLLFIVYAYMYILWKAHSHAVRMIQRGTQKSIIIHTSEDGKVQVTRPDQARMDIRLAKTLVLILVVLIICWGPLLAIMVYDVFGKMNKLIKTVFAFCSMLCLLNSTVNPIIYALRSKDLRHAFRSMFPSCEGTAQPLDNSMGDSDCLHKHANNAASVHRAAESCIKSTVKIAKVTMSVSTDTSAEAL
For experiment [22], the target named is T7, Cannabinoid receptor 1. Nature of the experiment: SAR analysis of antagonists of the Cannabinoid Receptor 1 using an Image-Based Assay - Set 3. [Related pubchem assays (depositor defined):AID1961, AID1965]. Format: functional.
For experiment [23], the target named is T8, G-protein coupled receptor 35 (Homo sapiens, UniProt Q9HC97). Nature of the experiment: SAR analysis of Antagonists of the GPR35 Receptor using an Image-Based Assay - Set 4. [Related pubchem assays (depositor defined):[…]]. Format: functional.
T8 sequence (Q9HC97 whole entry): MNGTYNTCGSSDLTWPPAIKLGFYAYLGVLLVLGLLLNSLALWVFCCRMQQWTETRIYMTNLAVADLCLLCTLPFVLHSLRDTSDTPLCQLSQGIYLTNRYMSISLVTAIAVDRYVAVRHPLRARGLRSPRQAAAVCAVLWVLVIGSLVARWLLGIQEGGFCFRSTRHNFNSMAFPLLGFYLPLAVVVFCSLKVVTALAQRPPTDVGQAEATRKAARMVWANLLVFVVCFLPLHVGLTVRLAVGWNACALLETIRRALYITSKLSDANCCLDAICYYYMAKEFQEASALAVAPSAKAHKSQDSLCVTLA
Experiment [24] concerns the target T6, Cannabinoid receptor 2. Nature of the experiment: SAR analysis of agonists of the Cannabinoid Receptor 2 using an Image-Based Assay - Set 2. [Related pubchem assays (depositor defined):AID1961, AID1965]. In kind it is functional.
For experiment [25], the target named is T8, G-protein coupled receptor 35. Nature of the experiment: SAR analysis of Agonists of the GPR35 Receptor using an Image-Based Assay - Set 3. [Related pubchem assays (depositor defined):AID1961, AID1965]. Format: functional.
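For CC50 in this document: cells exposed to compound for 72 hours before luminescence readout.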

Chain of DNA damage-inducible transcript 3 protein (P35639 whole entry): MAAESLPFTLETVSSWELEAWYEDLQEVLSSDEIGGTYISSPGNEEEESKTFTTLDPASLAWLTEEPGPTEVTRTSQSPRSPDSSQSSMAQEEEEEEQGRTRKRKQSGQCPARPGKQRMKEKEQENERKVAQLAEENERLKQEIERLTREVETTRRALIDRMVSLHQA

The AC50 is the midpoint of the concentration-response curve, whichever way the signal moves. With `O=C1C=C/C(=C/Br)O1`, the values for the concentration at half-maximal activity (AC50) in experiment [1] and in [2] were 4.81 µM (active) and 3.1 µM (active), respectively.
In general, IC50 refers to the point on the concentration scale where inhibition reaches its midpoint. The EC50 is the midpoint of the concentration-response curve. A word on the CC50: it is the concentration at which the toxic effect on the cells reaches its halfway point. On to `N#CC1=C(N)Oc2[nH]nc(-c3ccccc3)c2C1c1ccsc1` (stereo not given), for which the AC50 in [3] is 0.142 µM (active). The IC50 in experiment [4] was 64.5 µM (active). For the same compound, in experiment [5], the EC50 was 0.731 µM (active). The CC50 in experiment [6] is > 40 µM (active).
Turning to `CN(Cc1ccccc1)C(=O)c1ccc(NC(=O)Cc2cccc(NC(=O)C3CCCN(C(=O)C4CCC4)C3)c2)cc1` (stereo not given), in experiment [7], the concentration giving a half-maximal response (EC50) is 5.41 µM (active).
On to `O=C(Cc1csc(Nc2nc(S)nc3ccccc23)n1)NCCCN1CCN(c2ccccc2F)CC1`, for which the “Absolute IC50 (CHOP)” value in experiment [8] is 10 µM.
In the case of `CCCCNc1c(-c2cccc(-c3ccc(OC)cc3)c2)nc2ccc(C)cn12`, the concentration at half-maximal activity (AC50) was 7.86 µM (active) in experiment [9]; 28.7 µM (active) in [11]; 29.6 µM (active) in experiment [13]; 10.7 µM (active) in experiment [15]; 28.4 µM (active) in experiment [17]; 11 µM (active) in [18]. Further, the EC50 was 7.94 µM (active) in [10], 13.3 µM (active) in [12], > 100 µM (inactive) in [14] and 4.54 µM (active) in experiment [16].
For the compound `COc1ccc(-c2csc(NC(=O)CSc3nnc4c(C)cc5cc6c(cc5n34)OCCO6)n2)cc1`, the IC50 in [19], in experiment [22] and in experiment [23] was > 32 µM (inactive) each time. Further, the EC50 in [20], in [21], in experiment [24] and in experiment [25] was > 32 µM (inactive) each time.
